Laboratory results published in US10960036B2, “Pharmaceutical composition for preventing and treating alpha herpes virus infection, containing, as active ingredient, Elaeocarpus sylvestris extract or fraction thereof” (priority 2016, dated 2021).

Tested on: varicella-zoster virus (VZV)
Experiment: Expression of VZV replication-related genes (gB, ORF62) in infected MRC-5 cells, real-time PCR
Format: cell-based
Conditions: 50 μg/mL, 3 days after infection
Procedure: Viruses used to measure anti-replication activity were varicella-zoster virus (VZV), herpes simplex virus-1 (HSV-1) and herpes simplex virus-2 (HSV-2), which were obtained from the American Type Culture Collection (ATCC), and MRC-5 and Vero cells were also obtained from the ATCC and cultured. In a 5% CO2 incubator at 37° C., Vero cells were cultured in RPMI1640 medium containing 10% fetal bovine serum and 25 mM HEPES (2-[4-(2-hydroxyethyl) piperazin-1-yl] ethanesulfonic acid), and MRC-5 cells were cultured in MEM medium containing 10% fetal bovine serum and 25 mM HEPES.
Next, on 3 days after the infection, the cells were collected, and the inhibitory effect on viral replication was analyzed by real-time PCR using VZV glycoprotein B (gB) and open reading frame 62 (ORF62) DNAs.
MRC-5 cells were infected with VZV by culturing them with VZV-infected cells at a cell-to-cell ratio of 1:8, and treated with the Elaeocarpus sylvestris extract and its fractions (extract, hexane (Hx), dichloromethane (MC), ethyl acetate (EA), butanol (BuOH), and distilled water (DW) 50 μg/mL). On 3 days after the infection, the cells were collected, and the inhibitory effect against viral replication was analyzed by real-time PCR using VZV glycoprotein B (gB) and open reading frame 62 (ORF62) DNAs.
In order to analyze the VZV replication inhibitory effect and target of Elaeocarpus sylvestris extract components, MRC-5 cells were infected with VZV by culturing them with VZV-infected cells at a cell-to-cell ratio of 1:8, and treated with 50 μg/mL of each of Elaeocarpus sylvestris extract fractions (DS-1, DS-2, DS-3 and DS-4). On 3 days after the infection, the cells were collected, and the viral replication inhibitory effect of the fractions was analyzed by real-time PCR using VZV glycoprotein B (gB) and open reading frame 62 (ORF62) DNAs.

Row | Compound | expression of VZV glycoprotein B (gB) | expression of VZV open reading frame 62 (ORF62)
1 | Casuarictin [DS-4] | decreased | decreased
2 | COC(=O)c1cc(O)c(O)c(O)c1 (single isomer, unassigned) [DS-1, Methyl gallate] | decreased | decreased
3 | O=C1O[C@H]2[C@@H]3OC(=O)c4cc(O)c(O)c(O)c4-c4c(cc(O)c(O)c4O)C(=O)OC[C@H]2O[C@@H](OC(=O)c2cc(O)c(O)c(O)c2)[C@@H]3OC(=O)c2cc(O)c(O)c3c2[C@@H]2C1=CC(=O)[C@](O)(O3)C2(O)O [DS-3, Geraniin] | decreased | decreased
4 | COC(=O)c1cc(O)c(O)c(O)c1 (single isomer, unassigned) [DS-2, Methyl gallate] | decreased | decreased
